{"source": "patent US7459458B2", "about": "“Polymorph of N-methyl-N-(3-{3-[2-thienylcarbonyl]-pyrazol-[1,5-α]-pyrimidin-7-yl}phenyl)acetamide and compositions and methods related thereto” (Neurocrine Biosciences, Inc., priority 2002, dated 2008)", "assay": "Interconversion experiments (slurry) to evaluate thermodynamic stability of Compound 1 at room temperature", "assay_type": "physicochemical", "conditions": "agitated 16 days", "experimental": "Interconversion experiments were carried out to evaluate the thermodynamic stability of Compound 1 at room temperature. Three slurries were prepared by making saturated isopropanol solutions of Compound 1, filtering the solutions through 0.2 μm filters, and then adding an amount (in the form of crystals) of a polymorphic form of Compound 1. To the first slurry, equal amounts of both polymorph Form II and polymorph Form III (i.e., approximately 25 mg each) were added; to the second slurry, equal amounts of polymorph From I and polymorph Form III (i.e., approximately 25 mg each) were added; and to the third slurry, approximately 25 mg of polymorph Form III was added. The slurries were then agitated for 16 days. The resulting solids were collected by vacuum filtration, air-dried, and analyzed using XRPD.", "data": [{"smiles": "CC(=O)N(C)c1cccc(-c2ccnc3c(C(=O)c4cccs4)cnn23)c1", "note": "[polymorph Form III, N-methyl-N-(3-{3-[2-thienylcarbonyl]-pyrazol-[1,5-α]-pyrimidin-7-yl}phenyl)acetamide]", "values": [{"measurement": "solid form obtained from slurry (XRPD)", "setting": "saturated isopropanol slurry seeded with approx. 25 mg polymorph Form III alone", "result": "exclusively polymorph Form III"}, {"measurement": "solid form obtained from slurry (XRPD)", "setting": "saturated isopropanol slurry seeded with equal amounts (approx. 25 mg each) of polymorph Form I and Form III", "result": "polymorph Form III as the predominant product, with only a minor amount of polymorph Form I"}, {"measurement": "solid form obtained from slurry (XRPD)", "setting": "saturated isopropanol slurry seeded with equal amounts (approx. 25 mg each) of polymorph Form II and Form III", "result": "exclusively polymorph Form III"}]}]}
